Starred links: 1 amine or outer side, 2 acyl side, 3 side chain; linkers in the order of their positions; H or OH if unused. Non-standard residues stand in square brackets, D forms with d. Residues, ends and D or L forms follow the SMILES beside them. Groups on a side chain read outwards from the residue. *: point of attachment. C20 diacid = O=C(O)CCCCCCCCCCCCCCCCCCC(=O)*; γGlu = O=C(O)[C@H](CCC(=O)[*:2])N[*:1]; NMeI = CC[C@H](C)[C@H](NC)C(=O)O; Nle = CCCC[C@H](N)C(=O)O; AEEA = NCCOCCOCC(=O)O; Aib = CC(C)(N)C(=O)O
Columns and labels:
hCRHR2 = target: T1, hCRHR2 (Homo sapiens, UniProt Q13324); test: HTRF cAMP assay, determination of hCRHR2 potency (peptide libraries 5 conc., purified peptides 11 conc.); assay type: cell-based; details: Table 4, library peptides having X^38 = Nle; read-out: hCRHR2 pEC50 (converted)
T1 sequence (Q13324 1-411): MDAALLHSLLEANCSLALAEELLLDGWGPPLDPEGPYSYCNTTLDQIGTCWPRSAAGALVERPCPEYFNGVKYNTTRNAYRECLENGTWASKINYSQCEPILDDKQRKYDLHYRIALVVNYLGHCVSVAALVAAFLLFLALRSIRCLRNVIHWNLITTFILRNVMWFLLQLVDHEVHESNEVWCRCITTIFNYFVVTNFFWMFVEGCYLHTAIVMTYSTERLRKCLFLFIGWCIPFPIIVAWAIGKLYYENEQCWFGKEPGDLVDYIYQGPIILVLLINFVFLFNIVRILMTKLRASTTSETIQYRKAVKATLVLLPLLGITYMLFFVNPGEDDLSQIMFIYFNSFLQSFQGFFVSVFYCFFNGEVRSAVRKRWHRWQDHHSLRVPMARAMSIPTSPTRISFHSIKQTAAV
Method in brief: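 CHO-K1 cells stably expressing human CRHR2, thawed from frozen stocks just before use and run in suspension; cAMP measured by competitive HTRF immunoassay (cryptate anti-cAMP, d2-cAMP). Agonist peptides tested at 5 (libraries) or 11 (purified) concentrations; EC50 from sigmoid variable-slope nonlinear regression.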

hCRHR1 = target: T2, hCRHR1 (Homo sapiens, UniProt P34998); test: HTRF cAMP assay, determination of hCRHR1 potency (peptide libraries 5 conc., purified peptides 11 conc.); assay type: cell-based; details: Table 4, library peptides having X^38 = Nle; read-out: hCRHR1 pEC50 (converted)
T2 sequence (P34998 24-415): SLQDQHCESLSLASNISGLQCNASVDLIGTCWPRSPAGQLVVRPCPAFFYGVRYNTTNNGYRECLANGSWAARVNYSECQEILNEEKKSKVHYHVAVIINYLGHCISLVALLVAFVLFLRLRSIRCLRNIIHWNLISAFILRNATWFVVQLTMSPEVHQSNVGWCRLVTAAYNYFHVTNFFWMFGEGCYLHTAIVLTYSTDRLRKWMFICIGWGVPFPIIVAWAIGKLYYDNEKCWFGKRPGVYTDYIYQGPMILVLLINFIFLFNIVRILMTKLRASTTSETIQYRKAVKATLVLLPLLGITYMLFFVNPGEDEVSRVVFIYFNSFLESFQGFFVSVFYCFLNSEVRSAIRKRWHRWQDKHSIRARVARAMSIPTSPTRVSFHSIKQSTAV
Method in brief: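 CHO-K1 cells stably expressing human CRHR1, thawed from frozen stocks just before use, were stimulated in suspension with agonist peptides. cAMP was measured by HTRF competitive immunoassay (cryptate anti-cAMP antibody vs d2-cAMP).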

`CCCC[C@H](NC(=O)[C@@H](NC(=O)[C@H](CCC(=O)O)NC(=O)C(C)(C)NC(=O)[C@H](CC(N)=O)NC(=O)[C@@H](NC(=O)[C@H](CCCCNC(=O)COCCOCCNC(=O)COCCOCCNC(=O)CC[C@H](NC(=O)CC[C@H](NC(=O)CCCCCCCCCCCCCCCCCCC(=O)O)C(=O)O)C(=O)O)NC(=O)[C@H](C)NC(=O)[C@H](CCC(N)=O)NC(=O)[C@H](CCC(=O)O)NC(=O)[C@H](CCCNC(=N)N)NC(=O)[C@H](C)NC(=O)[C@H](C)NC(=O)[C@H](CCCNC(=N)N)NC(=O)[C@H](C)NC(=O)[C@H](CCCNC(=N)N)NC(=O)[C@H](C)NC(=O)[C@H](CCC(N)=O)NC(=O)[C@H](Cc1ccccc1)NC(=O)[C@H](CC(C)C)NC(=O)[C@H](CC(C)C)NC(=O)[C@@H](NC(=O)[C@H](CCC(N)=O)NC(=O)[C@H](CC(C)C)NC(=O)[C@H](CC(C)C)NC(=O)CNC(=O)[C@@H](NC(=O)[C@@H]1CCCN1C(=O)[C@@H](NC(=O)[C@H](CC(=O)O)NC(=O)[C@H](CC(C)C)NC(=O)[C@H](CO)NC(=O)[C@H](CC(C)C)NC(=O)[C@@H](NC(=O)[C@@H](NC)[C@@H](C)CC)C(C)C)C(C)C)[C@@H](C)CC)[C@@H](C)CC)[C@@H](C)O)[C@@H](C)CC)C(=O)N[C@@H](C)C(=O)N[C@@H](CCC(=O)O)C(=O)N[C@H](C(N)=O)C(C)C` [compound 211] (H-[NMeI]VLSLDVPIGLLQILLFQARARAAREQAK([AEEA-AEEA-γGlu-γGlu-C20 diacid])TN[Aib]EI[Nle]AEV-NH2) showed an EC50 (hCRHR2) of 0.0251 nM and an EC50 (hCRHR1) of 79400 nM.

Work on `CCCC[C@H](NC(=O)[C@@H](NC(=O)[C@H](CCC(=O)O)NC(=O)C(C)(C)NC(=O)[C@H](CC(N)=O)NC(=O)[C@@H](NC(=O)[C@H](CCCCNC(=O)COCCOCCNC(=O)COCCOCCNC(=O)CC[C@H](NC(=O)CC[C@H](NC(=O)CCCCCCCCCCCCCCCCCCC(=O)O)C(=O)O)C(=O)O)NC(=O)[C@H](C)NC(=O)[C@H](CCC(N)=O)NC(=O)[C@H](CCC(=O)O)NC(=O)[C@H](CCCNC(=N)N)NC(=O)[C@H](C)NC(=O)[C@H](C)NC(=O)[C@H](CCCNC(=N)N)NC(=O)[C@H](C)NC(=O)[C@H](CCCNC(=N)N)NC(=O)[C@H](C)NC(=O)[C@H](CCC(N)=O)NC(=O)[C@@H](NC(=O)[C@H](CC(C)C)NC(=O)[C@H](CC(C)C)NC(=O)[C@@H](NC(=O)[C@H](CCC(N)=O)NC(=O)[C@H](CC(C)C)NC(=O)[C@H](CC(C)C)NC(=O)CNC(=O)[C@@H](NC(=O)[C@@H]1CCCN1C(=O)[C@@H](NC(=O)[C@H](CC(=O)O)NC(=O)[C@H](CC(C)C)NC(=O)[C@H](CO)NC(=O)[C@H](CC(C)C)NC(=O)[C@@H](NC(=O)[C@@H](NC)[C@@H](C)CC)C(C)C)C(C)C)[C@@H](C)CC)[C@@H](C)CC)[C@@H](C)O)[C@@H](C)O)[C@@H](C)CC)C(=O)N[C@@H](C)C(=O)N[C@@H](CCC(=O)O)C(=O)N[C@H](C(N)=O)C(C)C` [compound 217] (H-[NMeI]VLSLDVPIGLLQILLTQARARAAREQAK([AEEA-AEEA-γGlu-γGlu-C20 diacid])TN[Aib]EI[Nle]AEV-NH2) yielded an EC50 (hCRHR2) of 0.0398 nM and an EC50 (hCRHR1) of 1000 nM.

In the case of `CCCC[C@H](NC(=O)[C@@H](NC(=O)[C@H](CCC(=O)O)NC(=O)C(C)(C)NC(=O)[C@H](CC(N)=O)NC(=O)[C@@H](NC(=O)[C@H](CCCCNC(=O)COCCOCCNC(=O)COCCOCCNC(=O)CC[C@H](NC(=O)CC[C@H](NC(=O)CCCCCCCCCCCCCCCCCCC(=O)O)C(=O)O)C(=O)O)NC(=O)[C@H](C)NC(=O)[C@H](CCC(N)=O)NC(=O)[C@H](CCC(=O)O)NC(=O)[C@H](CCCNC(=N)N)NC(=O)[C@H](C)NC(=O)[C@H](C)NC(=O)[C@H](CCCNC(=N)N)NC(=O)[C@H](C)NC(=O)[C@H](CCCNC(=N)N)NC(=O)[C@H](C)NC(=O)[C@H](CCC(N)=O)NC(=O)[C@H](CC(C)C)NC(=O)[C@H](CC(C)C)NC(=O)[C@H](CC(C)C)NC(=O)[C@@H](NC(=O)[C@H](CCC(N)=O)NC(=O)[C@H](CC(C)C)NC(=O)[C@H](CC(C)C)NC(=O)CNC(=O)[C@@H](NC(=O)[C@@H]1CCCN1C(=O)[C@@H](NC(=O)[C@H](CC(=O)O)NC(=O)[C@H](CC(C)C)NC(=O)[C@H](CO)NC(=O)[C@H](CC(C)C)NC(=O)[C@@H](NC(=O)[C@@H](NC)[C@@H](C)CC)C(C)C)C(C)C)[C@@H](C)CC)[C@@H](C)CC)[C@@H](C)O)[C@@H](C)CC)C(=O)N[C@@H](C)C(=O)N[C@@H](CCC(=O)O)C(=O)N[C@H](C(N)=O)C(C)C` [compound 229] (H-[NMeI]VLSLDVPIGLLQILLLQARARAAREQAK([AEEA-AEEA-γGlu-γGlu-C20 diacid])TN[Aib]EI[Nle]AEV-NH2), the EC50 (hCRHR2) is reported as 0.0794 nM and the EC50 (hCRHR1) is reported as 6310 nM.

With `CCCC[C@H](NC(=O)[C@@H](NC(=O)[C@H](CCC(=O)O)NC(=O)C(C)(C)NC(=O)[C@H](CC(N)=O)NC(=O)[C@@H](NC(=O)[C@H](CCCCNC(=O)COCCOCCNC(=O)COCCOCCNC(=O)CC[C@H](NC(=O)CC[C@H](NC(=O)CCCCCCCCCCCCCCCCCCC(=O)O)C(=O)O)C(=O)O)NC(=O)[C@H](C)NC(=O)[C@H](CCC(N)=O)NC(=O)[C@H](CCC(=O)O)NC(=O)[C@H](CCCNC(=N)N)NC(=O)[C@H](C)NC(=O)[C@H](C)NC(=O)[C@H](CCCNC(=N)N)NC(=O)[C@H](C)NC(=O)[C@H](CCCNC(=N)N)NC(=O)[C@H](C)NC(=O)[C@H](CCC(N)=O)NC(=O)[C@H](CCCCN)NC(=O)[C@H](CC(C)C)NC(=O)[C@H](CC(C)C)NC(=O)[C@@H](NC(=O)[C@H](CCC(N)=O)NC(=O)[C@H](CC(C)C)NC(=O)[C@H](CC(C)C)NC(=O)CNC(=O)[C@@H](NC(=O)[C@@H]1CCCN1C(=O)[C@@H](NC(=O)[C@H](CC(=O)O)NC(=O)[C@H](CC(C)C)NC(=O)[C@H](CO)NC(=O)[C@H](CC(C)C)NC(=O)[C@@H](NC(=O)[C@@H](NC)[C@@H](C)CC)C(C)C)C(C)C)[C@@H](C)CC)[C@@H](C)CC)[C@@H](C)O)[C@@H](C)CC)C(=O)N[C@@H](C)C(=O)N[C@@H](CCC(=O)O)C(=O)N[C@H](C(N)=O)C(C)C` [compound 230] (H-[NMeI]VLSLDVPIGLLQILLKQARARAAREQAK([AEEA-AEEA-γGlu-γGlu-C20 diacid])TN[Aib]EI[Nle]AEV-NH2) the EC50 (hCRHR2) was 0.0501 nM and the EC50 (hCRHR1) was 31600 nM.

Compound `CCCC[C@H](NC(=O)[C@@H](NC(=O)[C@H](CCC(=O)O)NC(=O)C(C)(C)NC(=O)[C@H](CC(N)=O)NC(=O)[C@@H](NC(=O)[C@H](CCCCNC(=O)COCCOCCNC(=O)COCCOCCNC(=O)CC[C@H](NC(=O)CC[C@H](NC(=O)CCCCCCCCCCCCCCCCCCC(=O)O)C(=O)O)C(=O)O)NC(=O)[C@H](C)NC(=O)[C@H](CCC(N)=O)NC(=O)[C@H](CCC(=O)O)NC(=O)[C@H](CCCNC(=N)N)NC(=O)[C@H](C)NC(=O)[C@H](C)NC(=O)[C@H](CCCNC(=N)N)NC(=O)[C@H](C)NC(=O)[C@H](CCCNC(=N)N)NC(=O)[C@H](C)NC(=O)[C@H](CCC(N)=O)NC(=O)[C@@H](NC(=O)[C@H](CC(C)C)NC(=O)[C@H](CC(C)C)NC(=O)[C@@H](NC(=O)[C@H](CCC(N)=O)NC(=O)[C@H](CC(C)C)NC(=O)[C@H](CC(C)C)NC(=O)CNC(=O)[C@@H](NC(=O)[C@@H]1CCCN1C(=O)[C@@H](NC(=O)[C@H](CC(=O)O)NC(=O)[C@H](CC(C)C)NC(=O)[C@H](CO)NC(=O)[C@H](CC(C)C)NC(=O)[C@@H](NC(=O)[C@@H](NC)[C@@H](C)CC)C(C)C)C(C)C)[C@@H](C)CC)[C@@H](C)CC)C(C)C)[C@@H](C)O)[C@@H](C)CC)C(=O)N[C@@H](C)C(=O)N[C@@H](CCC(=O)O)C(=O)N[C@H](C(N)=O)C(C)C` [compound 231] (H-[NMeI]VLSLDVPIGLLQILLVQARARAAREQAK([AEEA-AEEA-γGlu-γGlu-C20 diacid])TN[Aib]EI[Nle]AEV-NH2) has an EC50 (hCRHR2) of 0.0631 nM and an EC50 (hCRHR1) of 2510 nM.
